Experimental data from PMC5796017, “Enantiomeric Effect of D-Amino Acid Substitution on the Mechanism of Action of α-Helical Membrane-Active Peptides” (International Journal of Molecular Sciences, 2017).
Converted amounts (≈) assume the structure as drawn.

Columns and labels:
MIA PaCa-2 = experiment: MTT cell viability assay; format: cell-based, human; conditions: MIA PaCa-2, MTT, 24 h; mean ± SEM of three independent determinations
Method: (§1) HeLa, MIA PaCa-2, HPAC, and Bxpc-3 cells were maintained in Dulbecco’s modified Eagle medium) with 10% fetal bovine serum, penicillin (100 U/mL), and streptomycin ([…]) in a humid atmosphere at 37 °C with 5% CO2. The effect of the peptides on the survival of HeLa, MIA PaCa-2, HPAC, and Bxpc-3 cells was determined by 3-(4,5-dimethyl-2-thiazolyl)-2,5-diphenyl-2H-tetrazolium bromide (MTT) assay, as described in a previous study. Briefly, cells were seeded in 96-well plates at a density of 5000 per well. After overnight incubation, cells were incubated, in the absence, or presence of various concentrations of peptides for 24 h. Then, the formazan crystals formed by MTT were dissolved with dimethyl sulfoxide (DMSO) and the absorbance was determined at 492 nm with a microplate reader (GF-M3000; Gaomi Caihong Analytical Instruments Co., Shandong, China). The results were expressed as IC50 values, representing the concentration at which cell viability was reduced by 50%. The cytotoxicity assays were repeated in triplicate.

BxPC-3 = experiment: MTT cell viability assay; format: cell-based, human; conditions: BxPC-3, MTT, 24 h; mean ± SEM of three independent determinations
Method: as §1

HPAC = experiment: MTT cell viability assay; format: cell-based, human; conditions: 24 h, mean ± SEM of three independent determinations
Method: as §1

HeLa = experiment: MTT cell viability assay; format: cell-based, human; conditions: 24 h, mean ± SEM of three independent determinations
Method: as §1

S. epidermidis ATCC12228 = experiment: Antimicrobial activity, microtiter dilution MIC; format: cell-based, Staphylococcus epidermidis; conditions: G+; MH medium, 5 × 10^5 CFU/mL, 37 °C, 24 h, triplicate
Method: (§2) The antimicrobial activity of the peptides was determined by the standard microtiter dilution method and indicated as MIC (minimal inhibitory concentration) as described previously. Briefly, bacteria were cultured in Mueller–Hinton (MH) medium overnight at 37 °C, diluted to a final inoculum of 5 × 10^5 colony-forming units (CFU)/mL with MH and loaded into 96-well microtiter plates (90 μL/well) with serial dilution of peptides (10 μL/well), with a further incubation at 37 °C for 24 h. MIC was expressed as the lowest peptide concentration that inhibited the growth of bacteria. The antimicrobial assays were repeated in triplicate.

[1] = test system: human red blood (hRBC) cells; experiment: Hemolytic activity assay; format: cell-based; conditions: for MHC (minimal hemolytic concentration): 2% human RBC in PBS, 37 °C, 2 h, absorbance 578 nm, triplicate; for Hemolytic activity compared with V13K: human red blood cells
Method: The […] of the peptides was measured by a hemolytic activity assay as described previously. Briefly, healthy human RBCs were collected using an anticoagulation tube with EDTAK2 and centrifuged at 1000 rpm for 5 min. The erythrocytes were washed three times, then diluted to a concentration of 2% in phosphate-buffered saline (PBS). The peptides were serially diluted in PBS and 70 μL of the peptide solutions and 2% RBC suspension were added simultaneously to each well of a 96-well plate (round bottom) for a further incubation at 37 °C for 2 h. Then, the plates were centrifuged for 10 min at 3000 rpm and the supernatant (90 μL) was transferred to a 96-well plate (flat bottom). The absorbance of the supernatant was measured on a microplate reader at 578 nm. Erythrocytes in PBS and distilled water were used as the negative (0%) and positive (100%) controls, respectively. The hemolytic activity was calculated as the percentage of experimental group over positive control (100%), after subtraction of negative control (0%). The hemolytic assays were repeated in triplicate.

[2] = RP-HPLC retention time as relative hydrophobicity; format: physicochemical; conditions: 25 °C, used by the paper as measure of relative hydrophobicity
Method: The RP-HPLC retention time has been widely used to represent the relative hydrophobicity of peptides in many studies.The relative hydrophobicity of the peptides was determined by the RP-HPLC retention times at 25 °C. The change in hydrophobicity of the peptides caused by D-amino acid substitutions was mainly due to the disruption of the helical structure.

P. aeruginosa ATCC27853 = experiment: Antimicrobial activity, microtiter dilution MIC; format: cell-based, Pseudomonas aeruginosa; conditions: G−; MH medium, 5 × 10^5 CFU/mL, 37 °C, 24 h, triplicate
Method: as §2

S. aureus ATCC25923 = experiment: Antimicrobial activity, microtiter dilution MIC; format: cell-based, Staphylococcus aureus; conditions: G+; MH medium, 5 × 10^5 CFU/mL, 37 °C, 24 h, triplicate
Method: as §2

[3] = Circular dichroism (CD) secondary structure; format: physicochemical; conditions: for [θ]222, benign / [θ]222, 50% TFE: CD, 75 μM peptide, 25 °C; for [θ]222, benign: KP buffer (100 mM KCl, 50 mM KH2PO4/K2HPO4, pH 7.4); for [θ]222, 50% TFE / α-Helix (%), 50% TFE (relative helicity): KP buffer with 50% TFE; for α-Helix (%), 50% TFE (relative helicity) / α-Helix (%), benign: relative to molar ellipticity of V13K in 50% TFE; for α-Helix (%), benign: KP buffer
Source text: The influence of the amino acid substitutions on the peptide secondary structure were investigated using circular dichroism (CD) spectroscopy under benign conditions (KP buffer) and under conditions designed to mimic the hydrophobic environment of the membrane (KP buffer with 50% TFE). D-amino acid substitutions reduced the helicity of the peptide analogs relative to that of peptide V13K, in both KP buffer and KP buffer with 50% TFE. […] As shown in Table 2 and Figure S1, the values of the relative helicity of peptides with polar face substitutions are in the order of K14D (76.99%) > S11D/K14D (51.33%) > S11D/K14D/T15D (38.67%). Similarly, the relative helicity of the peptides with substitutions on the non-polar face follows the same trend: A12D (70.83%) > F9D/A12D (38.26%) > F9D/A12D/V16D (36.41%). Since the values of the relative helicity of the peptides with D-amino acid substitutions on the non-polar face were less than those peptide analogs with the same number of D-amino acid substitutions on the polar face, it is clear that the amino acid residues on the non-polar face may be more important for stabilizing the α-helical structure than residues on the polar face.
The secondary structures of the peptides were examined using a Jasco J-810 CD spectrometer (Jasco, Easton, MD, USA) at 25 °C as described previously. […] The mean residue molar ellipticities were calculated according to the equation [θ] = θ/10lCMn, in which, θ represents the ellipticity in millidegrees, l is the optical path length of the cuvette in centimeters, CM is the peptide concentration in mol/L, and n is the number of residues in the peptide. The mean residue molar ellipticities at 222 nm, [θ]222 (degree·cm^2·dmol^−1), were used to calculate the relative helical content of the peptides.

E. coli ATCC25922 = experiment: Antimicrobial activity, microtiter dilution MIC; format: cell-based, Escherichia coli; conditions: G−; MH medium, 5 × 10^5 CFU/mL, 37 °C, 24 h, triplicate
Method: as §2

Compound | IC50 (MIA PaCa-2) [µM] | IC50 (BxPC-3) [µM] | IC50 (HPAC) [µM] | IC50 (HeLa) [µM] | MIC (S. epidermidis ATCC12228) [µM] | MHC (minimal hemolytic concentration) [1] [µM] | Hemolytic activity compared with V13K [1] | tR (RP-HPLC retention time), relative hydrophobicity [2] [min] | MIC (P. aeruginosa ATCC27853) [µM] | MIC (S. aureus ATCC25923) [µM] | [θ]222, benign [3] [degree·cm^2·dmol^−1] | [θ]222, 50% TFE [3] | α-Helix (%), 50% TFE (relative helicity) [3] [%] | α-Helix (%), benign [3] [%] | MIC (E. coli ATCC25922) [µM]
CC[C@H](C)[C@H](NC(=O)[C@H](C)NC(=O)[C@H](CCCCN)NC(=O)[C@H](CC(C)C)NC(=O)[C@H](C)NC(=O)[C@@H](NC(=O)[C@H](Cc1c[nH]cn1)NC(=O)[C@H](CC(C)C)NC(=O)[C@H](NC(=O)[C@@H](NC(=O)[C@H](CCCCN)NC(=O)[C@H](CCCCN)NC(=O)[C@@H](C)NC(=O)[C@H](CO)NC(=O)[C@H](CCCCN)NC(=O)[C@@H](Cc1ccccc1)NC(=O)[C@@H](NC(=O)[C@H](CCCCN)NC(=O)[C@H](CC(C)C)NC(=O)[C@H](Cc1ccccc1)NC(=O)[C@H](CO)NC(=O)[C@H](CCCCN)NC(=O)[C@H](Cc1c[nH]c2ccccc12)NC(=O)[C@H](CCCCN)NC(C)=O)[C@@H](C)O)[C@@H](C)O)C(C)C)[C@@H](C)O)C(=O)N[C@@H](CO)C(=O)N[C@@H](CO)C(N)=O [F9D/A12D/V16D] | 57.9 ± 2.8 | 125 ± 1.8 | 95.6 ± 1.8 | 125 ± 3.4 | 125 (≈ 374 µg/mL) | >500 | much less hemolytic activity than V13K | 39.06 | 125 (≈ 374 µg/mL) | 125 (≈ 374 µg/mL) | −1907.83 | −18,393.1 degree·cm^2·dmol^−1 | 36.41 | 3.8 | 125 (≈ 374 µg/mL)
CC[C@H](C)[C@H](NC(=O)[C@H](C)NC(=O)[C@H](CCCCN)NC(=O)[C@H](CC(C)C)NC(=O)[C@H](C)NC(=O)[C@@H](NC(=O)[C@H](Cc1c[nH]cn1)NC(=O)[C@H](CC(C)C)NC(=O)[C@H](NC(=O)[C@@H](NC(=O)[C@H](CCCCN)NC(=O)[C@H](CCCCN)NC(=O)[C@@H](C)NC(=O)[C@H](CO)NC(=O)[C@H](CCCCN)NC(=O)[C@H](Cc1ccccc1)NC(=O)[C@@H](NC(=O)[C@H](CCCCN)NC(=O)[C@H](CC(C)C)NC(=O)[C@H](Cc1ccccc1)NC(=O)[C@H](CO)NC(=O)[C@H](CCCCN)NC(=O)[C@H](Cc1c[nH]c2ccccc12)NC(=O)[C@H](CCCCN)NC(C)=O)[C@@H](C)O)[C@@H](C)O)C(C)C)[C@@H](C)O)C(=O)N[C@@H](CO)C(=O)N[C@@H](CO)C(N)=O [A12D/V16D] | 46.2 ± 3 | 125 ± 5.9 | 41.4 ± 1.4 | 60.1 ± 1.2 | 125 (≈ 374 µg/mL) | >500 | much less hemolytic activity than V13K | 39.79 | 32 (≈ 95.7 µg/mL) | 125 (≈ 374 µg/mL) | −3435.72 | −23,452.9 degree·cm^2·dmol^−1 | 46.42 | 6.8 | 125 (≈ 374 µg/mL)
CC[C@H](C)[C@H](NC(=O)[C@H](C)NC(=O)[C@H](CCCCN)NC(=O)[C@H](CC(C)C)NC(=O)[C@H](C)NC(=O)[C@@H](NC(=O)[C@H](Cc1c[nH]cn1)NC(=O)[C@H](CC(C)C)NC(=O)[C@@H](NC(=O)[C@H](NC(=O)[C@@H](CCCCN)NC(=O)[C@H](CCCCN)NC(=O)[C@H](C)NC(=O)[C@@H](CO)NC(=O)[C@H](CCCCN)NC(=O)[C@H](Cc1ccccc1)NC(=O)[C@@H](NC(=O)[C@H](CCCCN)NC(=O)[C@H](CC(C)C)NC(=O)[C@H](Cc1ccccc1)NC(=O)[C@H](CO)NC(=O)[C@H](CCCCN)NC(=O)[C@H](Cc1c[nH]c2ccccc12)NC(=O)[C@H](CCCCN)NC(C)=O)[C@@H](C)O)[C@H](C)O)C(C)C)[C@@H](C)O)C(=O)N[C@@H](CO)C(=O)N[C@@H](CO)C(N)=O [S11D/K14D/T15D] | 56.8 ± 3.3 | 45.5 ± 5.6 | 54.2 ± 1.2 | 41.1 ± 0.5 | 16 (≈ 47.9 µg/mL) | 250 |  | 39.59 | 125 (≈ 374 µg/mL) | 64 (≈ 191 µg/mL) | −2845.85 | −19,537.5 degree·cm^2·dmol^−1 | 38.67 | 5.6 | 125 (≈ 374 µg/mL)
CC[C@H](C)[C@H](NC(=O)[C@H](C)NC(=O)[C@H](CCCCN)NC(=O)[C@H](CC(C)C)NC(=O)[C@H](C)NC(=O)[C@@H](NC(=O)[C@H](Cc1c[nH]cn1)NC(=O)[C@H](CC(C)C)NC(=O)[C@@H](NC(=O)[C@@H](NC(=O)[C@H](CCCCN)NC(=O)[C@H](CCCCN)NC(=O)[C@@H](C)NC(=O)[C@H](CO)NC(=O)[C@H](CCCCN)NC(=O)[C@@H](Cc1ccccc1)NC(=O)[C@@H](NC(=O)[C@H](CCCCN)NC(=O)[C@H](CC(C)C)NC(=O)[C@H](Cc1ccccc1)NC(=O)[C@H](CO)NC(=O)[C@H](CCCCN)NC(=O)[C@H](Cc1c[nH]c2ccccc12)NC(=O)[C@H](CCCCN)NC(C)=O)[C@@H](C)O)[C@@H](C)O)C(C)C)[C@@H](C)O)C(=O)N[C@@H](CO)C(=O)N[C@@H](CO)C(N)=O [F9D/A12D] | 38.8 ± 2.9 | 125 ± 3.7 | 42.4 ± 3 | 59.8 ± 0.5 | 64 (≈ 191 µg/mL) | 250 |  | 40.04 | 32 (≈ 95.7 µg/mL) | 125 (≈ 374 µg/mL) | −2319.89 | −19,328.6 degree·cm^2·dmol^−1 | 38.26 | 4.6 | 125 (≈ 374 µg/mL)
